# Measurements: patent US20260174749A1, “COMBINATION THERAPY WITH SUBSTITUTED 3-((3-AMINOPHENYL)AMINO)PIPERIDINE-2,6- DIONE COMPOUNDS” (Bristol-Myers Squibb Company, priority 2022, published 2026)
# Experiments:
# Format in all cases: cell-based
# Details in all cases: second agent in combination with Compound I, 7 days; for Synergy region (synergy score): Bliss/HSA excess
# [1] = tested on: LNCaP cells; assay: CTG proliferation assay, in-vitro combination screen, LNCaP; design: key to Synergy excess: experimental response-surface area minus reference-model area (Bliss/HSA); Maximum synergy: scale not given here
# Method: (§1) Three prostate cancer cell lines LNCAP, VCAP, and 22RV1 were used in this screen. Briefly, LNCaP cells were cultured in RPMI medium supplemented with 10% FBS, 1% penicillin/streptomycin, 10 mM HEPES, 1 mM sodium pyruvate, and 1.5 g/L sodium bicarbonate. LNCaP cells were seeded at a density of 2000 cells/well on 384 black assay plates printed with our different compound combinations of interest printed on the plates. PC3 cells were cultured in F12K medium supplemented with 10% FBS and 1% penicillin/streptomycin. 22RV1 cells were cultured in RPMI1640 medium supplemented with 10% FBS and 1% penicillin/streptomycin. 22RV1 cells were seeded at a density of 2000 cells/well on 384 black assay plates printed with our different compound combinations of interest printed on the plates. VCaP cells were cultured in DMEM medium supplemented with 10% FBS, 1% penicillin/streptomycin 1 mM sodium pyruvate, 1.5 g/L sodium bicarbonate on high bind treated tissue culture flasks (Corning CellBIND) to increase cell surface attachment. VCaP cells were seeded at a density of 3000 cells/well on high-bind 384 black assay plates printed with our different compound combinations of interest printed on the plates. The combination plates seeded with cells were then incubated for 7 days at 37° C. and 5% CO2. Cell viability assays were then performed on the plates using Promega CellTiter-Glo (CTG) Luminescent Cell Viability Assay kit and following the manufacturer's protocol. 20 μL of CTG reagent was added to each well of the 384 well plate, and plates were then incubated for 45 minutes before measuring the […] using PerkinElmer EnVision Plate Reader.
# (§2) Synergy is calculated by Bliss and HSA excess scores. Bliss and HSA excess scores are computed by subtracting the area under the experimental response surface to the areas under the corresponding reference model surface. A negative HSA excess score indicates antagonism, while a positive HSA excess indicates additivity and synergy is detected when also the Bliss excess score is positive. Replicates are integrated by fitting individual dose response curves. Statistical analysis is performed by first estimating experimental noise and goodness-of-fit values for each individual combination. These values are used to compute Z-scores for the observed effects. Z-scores are integrated across the combination matrix where the deviation from the model is consistent over adjacent doses and a p-value is computed.
# [2] = tested on: VCaP cells; assay: CTG proliferation assay, in-vitro combination screen, VCaP; design: key to Synergy excess / Additivity score: area between experimental and reference (Bliss/HSA) response surfaces
# Method: as §1, with “LNCaP cells were seeded at a density of 2000 cells/well on 384 black assay plates printed with our different compound combinations of interest printed on the plates.” left out, “22RV1 cells were seeded at a density of 2000 cells/well on 384 black assay plates printed with our different compound combinations of interest printed on the plates.” left out, “VCaP cells were seeded at a density of 3000 cells/well on high-bind 384 black assay plates printed with our different compound combinations of interest printed on the plates.” left out
# as §2
# [3] = tested on: 22RV1 cells; assay: CTG proliferation assay, in-vitro combination screen, 22RV1; design: key to Synergy region (synergy score) / Additivity score / Antagonism score: area between experimental and reference (Bliss/HSA) response surfaces
# Method: as §1, with “LNCaP cells were seeded at a density of 2000 cells/well on 384 black assay plates printed with our different compound combinations of interest printed on the plates.” left out, “22RV1 cells were seeded at a density of 2000 cells/well on 384 black assay plates printed with our different compound combinations of interest printed on the plates.” left out, “VCaP cells were seeded at a density of 3000 cells/well on high-bind 384 black assay plates printed with our different compound combinations of interest printed on the plates.” left out
# as §2
smiles,measurement,setting,value
"CCN(c1cc(-c2ccc(CN3CCOCC3)cc2)cc(C(=O)NCc2c(C)cc(C)[nH]c2=O)c1C)C1CCOCC1 [Tazemetostat, tazemetostat]",Additivity score,[1],6.1
same,Antagonism score,[1],0
same,Maximum synergy,[1],20
same,Synergy excess,[1],5.3
same,Synergy region (synergy score),[1],4.1
"CC(C)NC[C@@H](C(=O)N1CCN(c2ncnc3c2[C@H](C)C[C@H]3O)CC1)c1ccc(Cl)cc1 [GDC-0068, ipatasertib]",Additivity score,[1],13
same,Antagonism score,[1],0
same,Maximum synergy,[1],23
same,Synergy excess,[1],7.6
same,Synergy region (synergy score),[1],5.6
same,Additivity score,[2],7.5
same,Antagonism score,[2],0
same,Maximum synergy,[2],14
same,Synergy excess,[2],3.8
same,Synergy region (synergy score),[2],1.5
same,Additivity score,[3],7.5
same,Antagonism score,[3],0
same,Maximum synergy,[3],23
same,Synergy excess,[3],2.4
same,Synergy region (synergy score),[3],2.1
"CNC(=O)c1cc(Oc2ccc(NC(=O)Nc3ccc(Cl)c(C(F)(F)F)c3)cc2)ccn1 [Sorafenib, sorafenib]",Additivity score,[3],2.6
same,Antagonism score,[3],0
same,Maximum synergy,[3],20
same,Synergy region (synergy score),[3],0.65
C[C@@H](Nc1cc(F)cc(F)c1)c1cc(C(=O)N(C)C)cc2c(=O)cc(N3CCOCC3)oc12 [AZD8186],Additivity score,[1],10
same,Antagonism score,[1],0
same,Maximum synergy,[1],12
same,Synergy excess,[1],4.4
same,Synergy region (synergy score),[1],1.5
same,Additivity score,[2],2.1
same,Antagonism score,[2],0
same,Maximum synergy,[2],11
same,Synergy excess,[2],2.9
same,Synergy region (synergy score),[2],0.39
same,Additivity score,[3],7.6
same,Antagonism score,[3],0
same,Maximum synergy,[3],24
same,Synergy excess,[3],2.4
same,Synergy region (synergy score),[3],1.6
"N#CC[C@H](C1CCCC1)n1cc(-c2ncnc3[nH]ccc23)cn1 [Ruxolitinib, ruxolitinib]",Additivity score,[2],5.2
same,Antagonism score,[2],0
"NC1(C(=O)N[C@@H](CCO)c2ccc(Cl)cc2)CCN(c2nc[nH]c3nccc2-3)CC1 [AZD5363, capivasertib]",Additivity score,[1],16
same,Antagonism score,[1],0
same,Maximum synergy,[1],26
same,Synergy excess,[1],9.4
same,Synergy region (synergy score),[1],8.1
same,Additivity score,[2],7.1
same,Antagonism score,[2],0
same,Maximum synergy,[2],13
same,Synergy excess,[2],6.2
same,Synergy region (synergy score),[2],2
